Laboratory results taken from PubChem BioAssay AID1259407 (Chemical Carcinogenesis Research Information System (CCRIS), 2018).
Calls of active or inactive are those of the source. How the calls were made is not given here.

Test system: CCRIS mutagenicity, Ames/micronucleus/aberration tests
Assay: CCRIS mutagenicity studies
[1] = Test System: AMES SALMONELLA TYPHIMURIUM, Strain/Indicator: TA98, Metabolic Activation: NONE, Method: STANDARD PLATE
[2] = Test System: AMES SALMONELLA TYPHIMURIUM, Strain/Indicator: TA98, Metabolic Activation: RAT, LIVER, S-9, AROCLOR 1254, Method: STANDARD PLATE
[3] = Test System: AMES SALMONELLA TYPHIMURIUM, Strain/Indicator: TA100, Metabolic Activation: NONE, Method: STANDARD PLATE
[4] = Test System: AMES SALMONELLA TYPHIMURIUM, Strain/Indicator: TA100, Metabolic Activation: RAT, LIVER, S-9, AROCLOR 1254, Method: STANDARD PLATE
[5] = Test System: AMES SALMONELLA TYPHIMURIUM, Strain/Indicator: TA98, Metabolic Activation: NONE, Method: PREINCUBATION
[6] = Test System: AMES SALMONELLA TYPHIMURIUM, Strain/Indicator: TA100, Metabolic Activation: NONE, Method: PREINCUBATION
[7] = Test System: AMES SALMONELLA TYPHIMURIUM, Strain/Indicator: TA1535, Metabolic Activation: NONE, Method: STANDARD PLATE
[8] = Test System: MOUSE LYMPHOMA, Strain/Indicator: L5178Y (TK+/TK-), Metabolic Activation: NONE, Method: SUSPENSION/PLATE

## COc1cc2c(c3oc4cccc(O)c4c(=O)c13)[C@@H]1CCO[C@@H]1O2
Test System: AMES SALMONELLA TYPHIMURIUM, Strain/Indicator: TA98, Metabolic Activation: RAT, LIVER, S-9, PHENOBARBITAL, Method: STANDARD PLATE
  mutagenic call: inactive; negative
Test System: AMES SALMONELLA TYPHIMURIUM, Strain/Indicator: TA100, Metabolic Activation: RAT, LIVER, S-9, PHENOBARBITAL, Method: STANDARD PLATE
  mutagenic call: inactive; negative

## O=C(c1ccccc1)C1OC1c1ccc(-c2ccccc2)cc1 (stereo not drawn)
[1]
  mutagenic call: inactive; negative
[2]
  mutagenic call: inactive; negative
[3]
  mutagenic call: inactive; negative
[4]
  mutagenic call: inactive; negative

## COC(=O)c1ccccc1C(=O)OC
End Point: IN VITRO CHROMOSOMAL ABERRATIONS, Test System: CHO-LB CELLS, Metabolic Activation: NONE
  mutagenic call: inactive; negative
End Point: IN VITRO CHROMOSOMAL ABERRATIONS, Test System: CHO-LB CELLS, Metabolic Activation: RAT, LIVER, S-9, AROCLOR 1254
  mutagenic call: inactive; negative
Test System: AMES SALMONELLA TYPHIMURIUM, Strain/Indicator: TA98, Metabolic Activation: HAMSTER, LIVER, S-9, AROCLOR 1254 (10%), Method: PREINCUBATION
  mutagenic call: inactive; negative
[5]
  mutagenic call: inactive; negative
Test System: AMES SALMONELLA TYPHIMURIUM, Strain/Indicator: TA98, Metabolic Activation: RAT, LIVER, S-9, AROCLOR 1254 (10%), Method: PREINCUBATION
  mutagenic call: inactive; negative
Test System: AMES SALMONELLA TYPHIMURIUM, Strain/Indicator: TA100, Metabolic Activation: HAMSTER, LIVER, S-9, AROCLOR 1254 (10%), Method: PREINCUBATION
  mutagenic call: inactive; negative
[6]
  mutagenic call: inactive; negative
Test System: AMES SALMONELLA TYPHIMURIUM, Strain/Indicator: TA100, Metabolic Activation: RAT, LIVER, S-9, AROCLOR 1254 (10%), Method: PREINCUBATION
  mutagenic call: inactive; negative
[4]
  mutagenic call: inactive; negative
Test System: AMES SALMONELLA TYPHIMURIUM, Strain/Indicator: TA100, Metabolic Activation: S-9, Method: STANDARD PLATE
  mutagenic call: inactive; negative
Test System: AMES SALMONELLA TYPHIMURIUM, Strain/Indicator: TA1535, Metabolic Activation: HAMSTER, LIVER, S-9, AROCLOR 1254 (10%), Method: PREINCUBATION
  mutagenic call: inactive; negative
Test System: AMES SALMONELLA TYPHIMURIUM, Strain/Indicator: TA1535, Metabolic Activation: NONE, Method: PREINCUBATION
  mutagenic call: inactive; negative
[7]
  mutagenic call: inactive; negative
Test System: AMES SALMONELLA TYPHIMURIUM, Strain/Indicator: TA1535, Metabolic Activation: RAT, LIVER, S-9, AROCLOR 1254 (10%), Method: PREINCUBATION
  mutagenic call: inactive; negative
Test System: AMES SALMONELLA TYPHIMURIUM, Strain/Indicator: TA1535, Metabolic Activation: S-9, Method: STANDARD PLATE
  mutagenic call: inactive; negative
Test System: AMES SALMONELLA TYPHIMURIUM, Strain/Indicator: TA1537, Metabolic Activation: HAMSTER, LIVER, S-9, AROCLOR 1254 (10%), Method: PREINCUBATION
  mutagenic call: inactive; negative
Test System: AMES SALMONELLA TYPHIMURIUM, Strain/Indicator: TA1537, Metabolic Activation: NONE, Method: PREINCUBATION
  mutagenic call: inactive; negative
Test System: AMES SALMONELLA TYPHIMURIUM, Strain/Indicator: TA1537, Metabolic Activation: RAT, LIVER, S-9, AROCLOR 1254 (10%), Method: PREINCUBATION
  mutagenic call: inactive; negative
[8]
  mutagenic call: inactive; negative
Test System: MOUSE LYMPHOMA, Strain/Indicator: L5178Y (TK+/TK-), Metabolic Activation: RAT LIVER S-9, Method: SUSPENSION/PLATE
  mutagenic call: active; positive

## Cc1cc(S(=O)(=O)O)ccc1N
Test System: AMES SALMONELLA TYPHIMURIUM, Strain/Indicator: TA98, Metabolic Activation: HAMSTER, LIVER, S-9, AROCLOR 1254, Method: STANDARD PLATE
  mutagenic call: inactive; negative
[1]
  mutagenic call: inactive; negative
[2]
  mutagenic call: inactive; negative
Test System: AMES SALMONELLA TYPHIMURIUM, Strain/Indicator: TA100, Metabolic Activation: HAMSTER, LIVER, S-9, AROCLOR 1254, Method: STANDARD PLATE
  mutagenic call: inactive; negative
[3]
  mutagenic call: inactive; negative
[4]
  mutagenic call: inactive; negative
Test System: AMES SALMONELLA TYPHIMURIUM, Strain/Indicator: TA1535, Metabolic Activation: HAMSTER, LIVER, S-9, AROCLOR 1254, Method: STANDARD PLATE
  mutagenic call: inactive; negative
[7]
  mutagenic call: inactive; negative
Test System: AMES SALMONELLA TYPHIMURIUM, Strain/Indicator: TA1535, Metabolic Activation: RAT, LIVER, S-9, AROCLOR 1254, Method: STANDARD PLATE
  mutagenic call: inactive; negative
Test System: AMES SALMONELLA TYPHIMURIUM, Strain/Indicator: TA1537, Metabolic Activation: HAMSTER, LIVER, S-9, AROCLOR 1254, Method: STANDARD PLATE
  mutagenic call: inactive; negative
Test System: AMES SALMONELLA TYPHIMURIUM, Strain/Indicator: TA1537, Metabolic Activation: NONE, Method: STANDARD PLATE
  mutagenic call: inactive; negative
Test System: AMES SALMONELLA TYPHIMURIUM, Strain/Indicator: TA1537, Metabolic Activation: RAT, LIVER, S-9, AROCLOR 1254, Method: STANDARD PLATE
  mutagenic call: inactive; negative
Test System: AMES SALMONELLA TYPHIMURIUM, Strain/Indicator: TA1538, Metabolic Activation: HAMSTER, LIVER, S-9, AROCLOR 1254, Method: STANDARD PLATE
  mutagenic call: inactive; negative
Test System: AMES SALMONELLA TYPHIMURIUM, Strain/Indicator: TA1538, Metabolic Activation: NONE, Method: STANDARD PLATE
  mutagenic call: inactive; negative
Test System: AMES SALMONELLA TYPHIMURIUM, Strain/Indicator: TA1538, Metabolic Activation: RAT, LIVER, S-9, AROCLOR 1254, Method: STANDARD PLATE
  mutagenic call: inactive; negative
[8]
  mutagenic call: inactive; negative. reevaluation of results: negative
Test System: MOUSE LYMPHOMA, Strain/Indicator: L5178Y (TK+/TK-), Metabolic Activation: RAT, LIVER, S-9, AROCLOR 1254, Method: SUSPENSION/PLATE
  mutagenic call: active; positive. reevaluation of results: positive

## Nc1cccc([N+](=O)[O-])c1CO
[5]
  mutagenic call: inactive; negative
Test System: AMES SALMONELLA TYPHIMURIUM, Strain/Indicator: TA98, Metabolic Activation: RAT, LIVER, S-9, PHENOBARBITAL AND 5,6-BENZOFLAVONE, Method: PREINCUBATION
  mutagenic call: inactive; negative
[6]
  mutagenic call: inactive; negative
Test System: AMES SALMONELLA TYPHIMURIUM, Strain/Indicator: TA100, Metabolic Activation: RAT, LIVER, S-9, PHENOBARBITAL AND 5,6-BENZOFLAVONE, Method: PREINCUBATION
  mutagenic call: inactive; negative

## CC(=O)Oc1ccc2c(c1)C1(C)OOC1(C)O2 (stereo not drawn)
[6]
  mutagenic call: active; positive
